Experimental data reported in ChEMBL document CHEMBL1201862, “PubChem BioAssay data set” (2004).
The source made the active and inactive calls.

Experiments:
[1] = Luminescence Cell-Based Dose Retest to Confirm Inhibitors of Cancer Stem Cells. [Related pubchem assays (depositor defined):AID2717, AID2721]; format: functional; settings: Homo sapiens
[2] = HEK-293T cell viability reduction – luminescence, B-cell screen hits, cytotoxicity control for BCR NF-kB inhibitor project, dose response (AID 489021); format: functional, cell-based;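 further: HEK-293T cells carrying an NF-kB luciferase reporter; cells exposed to compound for about 14 hours before viability readout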
[3] = reduction of Shn3 3'UTR-driven luciferase in osteoblasts – cell-based, Clone20 osteoblasts, firefly luciferase, cherry-picked, dose response (AID 624132); format: functional;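 further: firefly luciferase luminescence from reporter carrying the Shn3 3'UTR in osteoblasts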
[4] = loss of viability in HepG2 cells – cell-based, CellTiter-Glo, cherry-picked, cytotoxicity control for Shn3 inhibitor project, dose response (AID 624134); format: functional
[5] = non-specific 3'UTR reporter inhibition in Clone20-Shn3RL – cell-based, Renilla luciferase, cherry-picked, counter-screen for Shn3 inhibitor project, dose response (AID 624133); format: functional
[6] = target: Beta-galactosidase (Escherichia coli, UniProt Q8VNN2); assay: detection-enzyme interference by beta-gal modulators – biochemical, E. coli enzyme, set 3, artefact control for CCR6 antagonist project, dose response (AID 504712); format: functional
Sequence of Beta-galactosidase (Q8VNN2 whole entry): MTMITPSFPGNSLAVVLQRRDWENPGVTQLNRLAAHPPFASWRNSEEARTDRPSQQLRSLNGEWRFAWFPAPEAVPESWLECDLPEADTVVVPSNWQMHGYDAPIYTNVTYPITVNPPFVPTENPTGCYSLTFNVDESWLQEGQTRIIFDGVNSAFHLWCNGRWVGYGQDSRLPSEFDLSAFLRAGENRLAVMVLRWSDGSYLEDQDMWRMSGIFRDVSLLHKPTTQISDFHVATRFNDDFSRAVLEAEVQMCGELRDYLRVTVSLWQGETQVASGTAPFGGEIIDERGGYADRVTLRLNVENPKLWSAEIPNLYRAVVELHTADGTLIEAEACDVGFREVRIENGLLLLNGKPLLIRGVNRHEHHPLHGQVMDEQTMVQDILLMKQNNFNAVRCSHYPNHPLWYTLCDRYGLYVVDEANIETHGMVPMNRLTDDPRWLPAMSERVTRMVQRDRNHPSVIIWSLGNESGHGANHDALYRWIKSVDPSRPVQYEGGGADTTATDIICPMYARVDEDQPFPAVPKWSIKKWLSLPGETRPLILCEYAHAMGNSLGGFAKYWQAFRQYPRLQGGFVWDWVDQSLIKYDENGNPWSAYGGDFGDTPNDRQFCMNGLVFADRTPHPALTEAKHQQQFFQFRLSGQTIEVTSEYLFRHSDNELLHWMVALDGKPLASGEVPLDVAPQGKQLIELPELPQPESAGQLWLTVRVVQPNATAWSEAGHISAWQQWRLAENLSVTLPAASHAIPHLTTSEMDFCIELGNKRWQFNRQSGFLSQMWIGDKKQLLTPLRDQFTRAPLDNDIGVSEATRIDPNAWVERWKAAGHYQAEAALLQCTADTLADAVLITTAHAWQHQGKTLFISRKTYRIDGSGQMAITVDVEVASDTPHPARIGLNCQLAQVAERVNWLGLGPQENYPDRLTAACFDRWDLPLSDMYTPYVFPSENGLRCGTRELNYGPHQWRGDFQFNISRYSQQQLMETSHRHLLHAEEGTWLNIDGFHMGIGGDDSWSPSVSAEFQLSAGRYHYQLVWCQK

[7] = target: T1, Hexokinase HKDC1 (Homo sapiens, UniProt Q2TB90); assay: inhibition of HKDC1 glucose phosphorylation – biochemical, W721R variant, dose response (AID 504729); format: functional
T1 sequence (Q2TB90 whole entry): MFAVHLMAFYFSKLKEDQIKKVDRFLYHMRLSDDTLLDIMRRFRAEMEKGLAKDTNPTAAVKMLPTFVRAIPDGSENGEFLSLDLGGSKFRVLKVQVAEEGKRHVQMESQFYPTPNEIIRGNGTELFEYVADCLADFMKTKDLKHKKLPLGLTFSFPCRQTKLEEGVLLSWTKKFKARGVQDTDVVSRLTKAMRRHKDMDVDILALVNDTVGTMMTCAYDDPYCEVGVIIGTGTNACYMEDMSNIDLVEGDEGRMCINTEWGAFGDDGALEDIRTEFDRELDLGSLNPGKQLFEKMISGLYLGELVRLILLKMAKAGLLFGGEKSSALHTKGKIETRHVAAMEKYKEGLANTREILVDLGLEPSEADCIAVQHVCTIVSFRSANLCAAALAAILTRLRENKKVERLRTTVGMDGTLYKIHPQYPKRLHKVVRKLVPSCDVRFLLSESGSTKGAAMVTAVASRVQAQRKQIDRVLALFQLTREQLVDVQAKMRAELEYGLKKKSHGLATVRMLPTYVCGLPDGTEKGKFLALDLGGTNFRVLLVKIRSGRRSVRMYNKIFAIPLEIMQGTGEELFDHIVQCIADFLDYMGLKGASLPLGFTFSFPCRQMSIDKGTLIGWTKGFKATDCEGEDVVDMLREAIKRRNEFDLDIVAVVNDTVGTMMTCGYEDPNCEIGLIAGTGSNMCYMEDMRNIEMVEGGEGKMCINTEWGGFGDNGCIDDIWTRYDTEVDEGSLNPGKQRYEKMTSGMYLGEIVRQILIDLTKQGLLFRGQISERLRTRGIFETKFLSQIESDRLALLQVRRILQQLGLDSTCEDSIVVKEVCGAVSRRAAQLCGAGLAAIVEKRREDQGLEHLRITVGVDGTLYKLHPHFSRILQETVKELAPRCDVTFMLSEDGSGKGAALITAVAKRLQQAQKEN

[8] = test system: HEK293; assay: inhibition of NOD1-driven NF-kB reporter – cell-based, luminescence, uHTS, primary screen (AID 1578); format: functional; settings: Homo sapiens
[9] = test system: HEK293; assay: cells; format: functional, cell-based; settings: Homo sapiens
[10] = test system: HEK293; assay: cells; format: functional, cell-based; settings: Homo sapiens; remark: listed apart in the source
[11] = target: T2, Nucleotide-binding oligomerization domain-containing protein 2 (Homo sapiens, UniProt Q9HC29); assay: inhibition of NOD2-driven NF-kB reporter – cell-based, luminescence, uHTS, HEK293 (AID 1566); format: functional
T2 sequence (Q9HC29 whole entry, the tested form may be a part): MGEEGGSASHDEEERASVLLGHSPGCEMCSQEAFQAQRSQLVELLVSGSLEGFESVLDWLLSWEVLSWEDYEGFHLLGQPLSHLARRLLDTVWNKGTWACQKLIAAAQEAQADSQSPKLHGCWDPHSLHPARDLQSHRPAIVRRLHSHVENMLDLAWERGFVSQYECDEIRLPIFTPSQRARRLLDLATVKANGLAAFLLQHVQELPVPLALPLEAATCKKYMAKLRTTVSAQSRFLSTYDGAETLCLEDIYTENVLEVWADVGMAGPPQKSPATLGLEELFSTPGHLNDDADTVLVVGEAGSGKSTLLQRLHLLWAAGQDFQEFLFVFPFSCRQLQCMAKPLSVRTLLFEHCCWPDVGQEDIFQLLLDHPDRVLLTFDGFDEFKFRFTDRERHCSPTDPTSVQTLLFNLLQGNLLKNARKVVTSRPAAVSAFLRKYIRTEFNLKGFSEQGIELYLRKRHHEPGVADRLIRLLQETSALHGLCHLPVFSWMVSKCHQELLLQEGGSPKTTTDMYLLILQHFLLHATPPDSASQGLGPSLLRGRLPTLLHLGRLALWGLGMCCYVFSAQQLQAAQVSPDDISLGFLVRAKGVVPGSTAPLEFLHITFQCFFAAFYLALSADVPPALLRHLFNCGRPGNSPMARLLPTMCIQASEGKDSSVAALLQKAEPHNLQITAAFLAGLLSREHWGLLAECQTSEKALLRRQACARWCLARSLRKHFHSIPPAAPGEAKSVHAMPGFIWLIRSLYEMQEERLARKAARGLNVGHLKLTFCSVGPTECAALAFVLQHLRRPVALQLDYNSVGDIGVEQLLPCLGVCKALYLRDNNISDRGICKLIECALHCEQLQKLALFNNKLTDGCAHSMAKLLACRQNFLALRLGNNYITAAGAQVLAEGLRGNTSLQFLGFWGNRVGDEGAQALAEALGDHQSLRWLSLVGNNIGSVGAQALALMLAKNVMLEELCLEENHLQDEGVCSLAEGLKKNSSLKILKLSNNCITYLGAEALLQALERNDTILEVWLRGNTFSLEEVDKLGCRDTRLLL

[12] = test system: HEK293; assay: NOD2 signaling inhibitors in MDP-stimulated cells, cell-based, uHTS, luminescence (AID 2001); format: functional; settings: Homo sapiens
[13] = Trypanosoma cruzi growth suppression in host cells – NIH3T3 host cells, beta-gal luminescence, confirmation (AID 2044); format: functional, cell-based;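 further: intracellular parasites grown in NIH/3T3 mouse fibroblasts as host cells; luminescent beta-galactosidase reporter signal from transgenic T. cruzi replicating inside host cells; inhibitors lower the luminescence signal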
[14] = test system: HEK293; assay: cells; format: functional, cell-based; settings: Homo sapiens; remark: listed apart in the source
[15] = NIH3T3 cell viability loss – ATP luminescence, mouse fibroblasts, counter-screen, dose response (AID 2010); format: functional, cell-based;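 further: cells exposed to compound for about 90 hours before reading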
[16] = target: Tumor necrosis factor (Homo sapiens, UniProt P01375); assay: analog potency on TNFa NF-kB signaling – cell-based, revised, SAR follow-up (AID 2337); format: functional
Sequence of Tumor necrosis factor (P01375 whole entry, the tested form may be a part): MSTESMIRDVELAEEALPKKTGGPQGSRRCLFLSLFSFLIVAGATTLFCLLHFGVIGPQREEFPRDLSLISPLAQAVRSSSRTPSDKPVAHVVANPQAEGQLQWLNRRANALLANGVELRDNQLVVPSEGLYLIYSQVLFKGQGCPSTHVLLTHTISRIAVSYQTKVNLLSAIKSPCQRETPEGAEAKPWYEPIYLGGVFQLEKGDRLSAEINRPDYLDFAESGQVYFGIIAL

[17] = target: T3, Nucleotide-binding oligomerization domain-containing protein 1 (Homo sapiens, UniProt Q9Y239); assay: blockers of NOD1 pathway activity – revised, SAR follow-up (AID 2333); format: functional
T3 sequence (Q9Y239 whole entry): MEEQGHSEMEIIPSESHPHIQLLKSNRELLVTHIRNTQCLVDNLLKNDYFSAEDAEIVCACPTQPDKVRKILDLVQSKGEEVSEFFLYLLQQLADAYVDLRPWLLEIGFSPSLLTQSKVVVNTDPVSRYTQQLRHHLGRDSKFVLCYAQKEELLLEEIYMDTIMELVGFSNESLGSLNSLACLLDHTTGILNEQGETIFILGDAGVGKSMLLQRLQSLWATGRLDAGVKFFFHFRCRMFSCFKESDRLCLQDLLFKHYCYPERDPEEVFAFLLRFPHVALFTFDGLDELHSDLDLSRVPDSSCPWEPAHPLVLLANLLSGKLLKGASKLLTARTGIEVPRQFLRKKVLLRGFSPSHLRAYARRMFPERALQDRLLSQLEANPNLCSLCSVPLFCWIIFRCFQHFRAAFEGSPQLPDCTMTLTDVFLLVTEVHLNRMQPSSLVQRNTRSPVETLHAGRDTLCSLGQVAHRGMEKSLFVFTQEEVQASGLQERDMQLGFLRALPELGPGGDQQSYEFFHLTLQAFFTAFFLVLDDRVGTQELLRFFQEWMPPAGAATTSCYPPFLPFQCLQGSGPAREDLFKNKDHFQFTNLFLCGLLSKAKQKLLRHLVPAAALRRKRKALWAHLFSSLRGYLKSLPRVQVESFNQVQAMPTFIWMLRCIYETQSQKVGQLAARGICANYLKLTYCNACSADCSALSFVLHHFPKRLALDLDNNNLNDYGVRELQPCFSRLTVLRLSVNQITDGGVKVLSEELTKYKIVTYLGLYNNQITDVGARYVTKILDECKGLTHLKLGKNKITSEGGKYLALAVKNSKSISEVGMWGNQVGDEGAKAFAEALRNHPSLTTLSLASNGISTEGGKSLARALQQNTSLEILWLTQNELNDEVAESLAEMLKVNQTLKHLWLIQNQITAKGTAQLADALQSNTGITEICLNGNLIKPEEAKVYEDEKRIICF

[18] = target: T2, Nucleotide-binding oligomerization domain-containing protein 2; assay: PubChem AID 2334; format: functional
[19] = test system: Vero; assay: cells; format: functional, cell-based; settings: Chlorocebus sabaeus
[20] = test system: HEK293; assay: cells; settings: Homo sapiens
[21] = luciferase reporter signal suppression in cells – H4 neuroglioma cells, luminescence, dose response (AID 1990); format: functional, cell-based
[22] = Luminescence Cell-Based Dose Response HTS to Identify Inhibitors of 5'UTR Stem-Loop Driven Prion Protein mRNA Translation in H4 Neuroglioblastoma Cells. [Related pubchem assays: 1827 (Project Summary), 1813 (Primary HTS)]; format: functional
[23] = alpha-synuclein stem-loop luciferase translation blockers – H4 neuroglioma cells, luminescence, confirmation (AID 1988); format: functional, cell-based
[24] = target: T4, Bcl-2-like protein 10 (Homo sapiens, UniProt Q9HD36); assay: Bcl-B/TR3 peptide binding disruption – biochemical, fluorescence polarization, FITC-TR3 peptide, selectivity assay for Bfl-1 inhibitor project, primary screen (AID 748);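 further: fluorescence polarization from a fluorescein-labelled TR3 peptide binding purified Bcl-B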
T4 sequence (Q9HD36 whole entry): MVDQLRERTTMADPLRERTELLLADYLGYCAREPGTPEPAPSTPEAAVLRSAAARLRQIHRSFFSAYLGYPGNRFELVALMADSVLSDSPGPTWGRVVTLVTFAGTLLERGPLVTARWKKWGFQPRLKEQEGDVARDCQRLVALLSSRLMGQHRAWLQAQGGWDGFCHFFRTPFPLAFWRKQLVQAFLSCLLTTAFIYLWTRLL

[25] = target: Beta-2 adrenergic receptor (Homo sapiens, UniProt P07550); assay: ADRB2 activation measured by internalization – cell-based, FAP fluorogen, flow cytometry, cherry pick 1, dose response (AID 588763); format: functional
Sequence of Beta-2 adrenergic receptor (P07550 whole entry): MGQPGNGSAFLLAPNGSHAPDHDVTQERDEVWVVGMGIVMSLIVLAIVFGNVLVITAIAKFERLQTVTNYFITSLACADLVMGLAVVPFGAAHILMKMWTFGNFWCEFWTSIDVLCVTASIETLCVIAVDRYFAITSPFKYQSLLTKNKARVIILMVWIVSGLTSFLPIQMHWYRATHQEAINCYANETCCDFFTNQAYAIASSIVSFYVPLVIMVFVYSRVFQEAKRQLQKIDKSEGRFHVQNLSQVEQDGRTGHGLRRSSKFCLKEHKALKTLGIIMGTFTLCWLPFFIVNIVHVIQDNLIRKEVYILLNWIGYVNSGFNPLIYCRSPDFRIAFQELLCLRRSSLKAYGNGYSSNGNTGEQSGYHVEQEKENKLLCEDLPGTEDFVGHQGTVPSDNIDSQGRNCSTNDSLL

[26] = THP-1 cell cytotoxicity, dose response, cytotoxicity control for non-replicating M. tuberculosis project (AID 489025); format: functional
[27] = HepG2 cell cytotoxicity, dose response, cytotoxicity control for non-replicating M. tuberculosis project (AID 489018); format: functional; settings: Mycobacterium tuberculosis
[28] = Vero E6 cell cytotoxicity, dose response, cytotoxicity control for non-replicating M. tuberculosis project, secondary assay (AID 492998); format: functional, VeroE6; settings: Vero C1008
[29] = cells; format: functional
[30] = target: T5, Bcl-2-related protein A1 (Mus musculus, UniProt Q07440); format: functional;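 further: confirmatory dose–response counterscreen on Bfl-1, used to check hits from a UBC13 polyubiquitin inhibitor campaign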
T5 sequence (Q07440 whole entry): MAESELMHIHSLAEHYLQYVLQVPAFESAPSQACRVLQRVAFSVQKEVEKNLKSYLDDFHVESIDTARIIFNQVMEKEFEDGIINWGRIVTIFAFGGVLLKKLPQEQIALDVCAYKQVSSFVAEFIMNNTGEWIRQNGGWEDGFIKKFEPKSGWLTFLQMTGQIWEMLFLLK

[31] = target: T6, Ubiquitin-conjugating enzyme E2 N (Homo sapiens, UniProt P61088); format: functional
T6 sequence (P61088 whole entry): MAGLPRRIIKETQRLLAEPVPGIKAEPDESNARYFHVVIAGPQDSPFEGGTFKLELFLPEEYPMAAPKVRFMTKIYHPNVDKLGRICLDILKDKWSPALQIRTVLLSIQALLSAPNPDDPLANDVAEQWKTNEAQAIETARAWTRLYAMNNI

[32] = target: Neurotensin receptor type 1 (Homo sapiens, UniProt P30989); format: functional;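 further: Image-based confirmatory dose-response assay measuring agonist activity at NTR1; NTR1-expressing U2OS osteosarcoma cells imaged for beta-arrestin GFP spot formation; agonist potency where compounds increase beta-arrestin recruitment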
Sequence of Neurotensin receptor type 1 (P30989 whole entry): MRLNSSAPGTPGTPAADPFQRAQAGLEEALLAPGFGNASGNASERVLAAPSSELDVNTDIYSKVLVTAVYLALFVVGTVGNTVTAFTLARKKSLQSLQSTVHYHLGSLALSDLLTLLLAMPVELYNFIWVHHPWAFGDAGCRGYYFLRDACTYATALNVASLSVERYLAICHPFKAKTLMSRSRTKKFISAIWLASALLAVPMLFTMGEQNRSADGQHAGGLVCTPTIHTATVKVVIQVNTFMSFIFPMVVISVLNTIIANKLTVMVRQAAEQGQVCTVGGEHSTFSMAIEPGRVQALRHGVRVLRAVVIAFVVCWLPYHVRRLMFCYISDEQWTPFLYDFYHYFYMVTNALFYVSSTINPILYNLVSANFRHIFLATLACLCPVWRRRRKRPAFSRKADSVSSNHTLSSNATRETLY

[33] = target: T6, Ubiquitin-conjugating enzyme E2 N; format: functional; remark: listed apart in the source
[34] = A549 cell cytotoxicity, dose response, cytotoxicity control, plate reader, cherry-pick, antagonist series (AID 743412); format: functional, cell-based
[35] = toxicity toward HepG2 liver cells – cell-based, plate reader, cherry-pick, antagonist series, cytotoxicity control, dose response (AID 743416); format: functional
[36] = blockers of bursicon-stimulated LGR2 cAMP reporter – cell-based, HEK293, CRE-luciferase reporter, cherry pick, set 2, dose response (AID 743343); format: functional;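 further: transfected cells were stimulated with diluted bursicon conditioned medium after compound addition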
[37] = blockade of melanocortin 4 receptor signaling – cell-based, plate reader, cherry pick, counter-screen for LGR2 antagonist project, dose response (AID 743444); format: functional;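 further: transfected HEK 293 cells stimulated with alpha-MSH peptide; potency of inhibitors of the alpha-MSH evoked signal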
[38] = viability loss in HEK293 cells – cell-based, plate reader, cherry-picked samples, cytotoxicity control, dose response (AID 743446); format: functional

For `Cn1nnnc1Sc1ncnc2scc(Br)c12`, the AC50 [1] was 2.12 µM (active), the IC50 [2] was > 80 µM (inactive) and the AC50 [3] was 6.51 µM (active). The AC50 [4] was 39 µM (active) and the AC50 [5] was 12.5 µM (active).

For `COC(=O)c1ccc(CCc2cc(O)c(Br)cc2O)cc1`, the IC50 [6] was > 66.6 µM (inactive) and the IC50 [7] was 6.54 µM (active).

With `COc1ccc(-c2ccc(OC)c([C@H]3[C@H]4C=CC[C@@H](C)[C@@H]4C(=O)N3Cc3ccccc3)c2)cc1` the IC50 [2] was > 80 µM (inactive).

For `Cc1ccc2c(c1)CCCN2S(=O)(=O)c1cccc(C(=O)Nc2ccccc2C(=O)O)c1`, the EC50 [8] was 9.32 µM (active), the IC50 [9] was > 20 µM (inactive) and the IC50 [10] was > 20 µM (inactive). For the same compound, the EC50 [11] was 4.45 µM (active), the IC50 [12] was 15.9 µM (inactive) and the EC50 [13] was 4.95 µM (active). For the same compound, the IC50 [14] was > 20 µM (inactive), the EC50 [15] was 4.22 µM (active) and the IC50 [16] was 7.52 µM (active). The IC50 [17] was 9.05 µM (active), the IC50 [18] was 12.6 µM (active) and the IC50 [19] was > 25 µM (active). For the same compound, the IC50 [20] was > 20 µM (inactive).

With `CCCCCn1c(=O)c(C(=O)Nc2ccccc2S(N)(=O)=O)c(O)c2ccccc21` the EC50 [21] was > 120 µM (not active), the EC50 [8] was 6.17 µM (active) and the IC50 [9] was > 20 µM (inactive). The EC50 [22] was > 120 µM (not active), the EC50 [23] was 9.08 µM (active) and the IC50 [10] was > 20 µM (inactive). For the same compound, the EC50 [11] was 5.7 µM (active), the IC50 [12] was 8.2 µM (active) and the EC50 [13] was 2.07 µM (active). For the same compound, the IC50 [14] was > 20 µM (inactive), the EC50 [15] was > 30 µM (not active) and the IC50 [16] was 3.44 µM (active). For the same compound, the IC50 [17] was 5.88 µM (active), the IC50 [18] was 6.92 µM (active) and the IC50 [20] was > 20 µM (inactive).

For `O=C(CCCCCn1c(=S)[nH]c2ccccc2c1=O)NCc1ccc2c(c1)OCO2`, the IC50 [24] was > 100 µM (inactive) and the EC50 [25] was 0.0077 µM (active).

In the case of `COc1cc(CNCCc2c[nH]c3ccccc23)ccc1OCc1ccc(F)cc1`, the IC50 [24] is reported as > 100 µM (inactive), the CC50 [26] is reported as 12 µM (active) and the AC50 [1] is reported as 5 µM (active). The CC50 [27] was 8 µM (active), the CC50 [28] was 11.3 µM (active) and the IC50 [29] was 10.7 µM (active). For the same compound, the EC50 [25] was 36.7 µM (inactive).

For `CCOC(=O)/C(=C\c1cccc(O)c1)c1nc(O)c2c(C)c(C)sc2n1`, the IC50 [30] was > 20 µM (inactive), the IC50 [31] was 16.4 µM (active) and the EC50 [32] was 6.59 µM (active). The IC50 [33] was > 20 µM (inactive), the AC50 [34] was 20.3 µM (active) and the AC50 [35] was 13.5 µM (active). For the same compound, the AC50 [36] was 12.9 µM (active), the AC50 [37] was 24.5 µM (active) and the AC50 [38] was 22.8 µM (active).
